ChEMBL document CHEMBL1201862, “PubChem BioAssay data set” (2004)
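How tested: cells in 96-well plates exposed to compound for 48 hours at five concentrations. GI50 marks 50% less growth.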 Activity calls are given as the source filed them. Rule as the data show it: active = GI50 up to about 1.1 µM and inactive = higher.

Experiments:
Experiment in all cases: NCI anticancer screen, dose series, 48 h
ACHN = system: ACHN
UACC-62 = system: UACC-62
HT-29 = system: HT-29
SF-268 = system: SF-268
SK-MEL-5 = system: SK-MEL-5
SW-620 = system: SW-620
SK-MEL-28 = system: SK-MEL-28
OVCAR-5 = system: OVCAR-5
KM12 = system: KM12
NCI-H226 = system: NCI-H226
RXF 393 = system: RXF 393
NCI-H460 = system: NCI-H460
U-251 = system: U-251
MOLT-4 = system: MOLT-4
HCT-15 = system: HCT-15
LOX IMVI = system: LOX IMVI
NCI-H522 = system: NCI-H522
HL-60 = system: HL-60
DMS-114 = system: DMS-114
A549 = system: A549
IGROV-1 = system: IGROV-1
OVCAR-8 = system: OVCAR-8
EKVX = system: EKVX
HCT-116 = system: HCT-116
LXFL 529 = system: LXFL 529
HOP-92 = system: HOP-92
SR = system: SR
XF498 = system: XF498
CCRF-CEM = system: CCRF-CEM
KM-20L2 = system: KM-20L2
A498 = system: A498
UACC-257 = system: UACC-257
HOP-62 = system: HOP-62
TK-10 = system: TK-10
SF-295 = system: SF-295
OVCAR-3 = system: OVCAR-3
NCI-H23 = system: NCI-H23
UO-31 = system: UO-31
SNB-78 = system: SNB-78
DMS-273 = system: DMS-273
HCC 2998 = system: HCC 2998
SK-MEL-2 = system: SK-MEL-2
K562 = system: K562
DLD-1 = system: DLD-1
COLO 205 = system: COLO 205
SN12C = system: SN12C
SF-539 = system: SF-539
RPMI-8226 = system: RPMI-8226
M14 = system: M14
HOP-18 = system: HOP-18
SK-OV-3 = system: SK-OV-3
CAKI-1 = system: CAKI-1
SNB-75 = system: SNB-75
OVCAR-4 = system: OVCAR-4
SNB-19 = system: SNB-19
786-0 = system: 786-0
Malme-3M = system: Malme-3M
M19-MEL = system: M19-MEL

Measured: GI50

CCCCCC(C[N+]1(C)CCOCC1)C(=O)/C=C/c1ccccc1 (centres undefined)
inactive: ACHN 23.6 µM | UACC-62 9.59 µM | HT-29 5.31 µM | SF-268 9.64 µM | SK-MEL-5 13.4 µM | SW-620 2.62 µM | SK-MEL-28 16.2 µM | OVCAR-5 17.4 µM | KM12 2.8 µM | NCI-H226 10.8 µM | RXF 393 14.4 µM | NCI-H460 16.4 µM | U-251 7.67 µM | MOLT-4 3.03 µM | LOX IMVI 1.76 µM | NCI-H522 3.03 µM | HL-60 6.89 µM | DMS-114 9.62 µM | A549 22.9 µM | IGROV-1 19.4 µM | OVCAR-8 12.7 µM | EKVX 19.9 µM | HCT-116 3.41 µM | LXFL 529 3.18 µM | HOP-92 18.7 µM | SR 2.91 µM | XF498 14.4 µM | CCRF-CEM 2.71 µM | KM-20L2 15.9 µM | A498 15.1 µM | UACC-257 13.4 µM | HOP-62 30 µM | TK-10 20.3 µM | SF-295 7.74 µM | OVCAR-3 14.4 µM | NCI-H23 14.7 µM | UO-31 16.1 µM | SNB-78 14.1 µM | DMS-273 2.91 µM | HCC 2998 18.2 µM | SK-MEL-2 15.2 µM | K562 3.34 µM | DLD-1 6.25 µM | COLO 205 15.7 µM | SN12C 13.5 µM | SF-539 9.79 µM | RPMI-8226 1.54 µM | M14 11.1 µM | HOP-18 14.8 µM | SK-OV-3 46.5 µM | CAKI-1 16.9 µM | SNB-75 7.33 µM | OVCAR-4 11.2 µM | SNB-19 12 µM | 786-0 2 µM | Malme-3M 16.9 µM | M19-MEL 14.6 µM
8.34 µM: HCT-15

CSC(SC)=C1Sc2cccc(Cl)c2S1
48.3 µM: HCT-15
inactive: ACHN 74 µM | UACC-62 95.1 µM | HT-29 29 µM | SF-268 > 100 µM | SK-MEL-5 33.3 µM | SW-620 39 µM | SK-MEL-28 > 100 µM | OVCAR-5 45.6 µM | KM12 83 µM | NCI-H226 > 100 µM | RXF 393 43.7 µM | NCI-H460 > 100 µM | U-251 65.2 µM | MOLT-4 31.8 µM | LOX IMVI 42.6 µM | NCI-H522 26.1 µM | HL-60 18.3 µM | DMS-114 26.4 µM | A549 > 100 µM | IGROV-1 > 100 µM | OVCAR-8 92.5 µM | EKVX 35.4 µM | HCT-116 41.5 µM | LXFL 529 69.8 µM | HOP-92 15.8 µM | XF498 29.9 µM | CCRF-CEM 28.8 µM | KM-20L2 36.9 µM | A498 76.4 µM | UACC-257 > 100 µM | HOP-62 > 100 µM | TK-10 76 µM | SF-295 56.5 µM | NCI-H23 55.2 µM | UO-31 52.5 µM | SNB-78 > 100 µM | DMS-273 46.2 µM | HCC 2998 15.8 µM | SK-MEL-2 17.9 µM | K562 23.9 µM | DLD-1 45.2 µM | COLO 205 20.4 µM | SN12C > 100 µM | SF-539 74.6 µM | RPMI-8226 36.2 µM | M14 82 µM | HOP-18 > 100 µM | SK-OV-3 98.4 µM | CAKI-1 43 µM | SNB-75 65.6 µM | OVCAR-4 68.4 µM | SNB-19 85.1 µM | 786-0 28.5 µM | Malme-3M > 100 µM | M19-MEL 43.5 µM
